Laboratory results: article PMC10468695, “The coenzyme B12 precursor 5,6-dimethylbenzimidazole is a flavin antagonist in Salmonella” (Microbial Cell, 2023)

Biological target: T1, NAD(P)H:flavin reductase (Fre) (Salmonella enterica, UniProt Q9L6L9)
T1 construct: tag-less Fre (H6 tag cleaved by rTEV)
T1 sequence (Q9L6L9 2-233): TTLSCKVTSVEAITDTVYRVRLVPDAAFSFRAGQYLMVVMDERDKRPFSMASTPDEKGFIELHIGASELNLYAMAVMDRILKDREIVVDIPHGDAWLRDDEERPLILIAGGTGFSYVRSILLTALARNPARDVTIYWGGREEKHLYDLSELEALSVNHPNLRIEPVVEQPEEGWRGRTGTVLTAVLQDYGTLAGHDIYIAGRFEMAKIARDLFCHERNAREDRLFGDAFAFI
Assay: NADH oxidation assay at […] nm with purified Fre; competitive inhibition fit versus FMN
Type: biochemical

Compound: Cc1cc2nc[nH]c2cc1C [DMB, 5,6-dimethylbenzimidazole]
- Ki: 1900 µM
